Assay results published in ChEMBL document CHEMBL3885881, “DrugMatrix”.

Organism: Rattus norvegicus
Assay: DrugMatrix - Regimen: Daily Repeat
Assay type: toxicity, organism-based, Sprague-Dawley
Set-up: regimen Daily Repeat, gender Male, age 6-8 weeks
Details: in vivo, po, 0 mg/kg, route oral GAVAGE, dose level Control, […]; for ABSOLUTE BASOPHIL / ABSOLUTE EOSINOPHIL / ABSOLUTE LYMPHOCYTE / ABSOLUTE MONOCYTE / ABSOLUTE SEGMENTED NEUTROPHIL / BASOPHIL / EOSINOPHIL / ERYTHROCYTE COUNT / HEMATOCRIT / HEMOGLOBIN / LEUKOCYTE COUNT / LYMPHOCYTE / MEAN CORPUSCULAR HEMOGLOBIN / MEAN CORPUSCULAR HEMOGLOBIN CONCENTRATION / MEAN CORPUSCULAR VOLUME / MONOCYTE / NEUTROPHIL / NUCLEATED RED BLOOD CELLS / PLATELET COUNT: tissue Blood; for ALANINE AMINOTRANSFERASE / ALBUMIN / ALKALINE PHOSPHATASE / ASPARTATE AMINOTRANSFERASE / BLOOD UREA NITROGEN / CARBON DIOXIDE / CHLORIDE / CHOLESTEROL / CREATINE PHOSPHOKINASE / CREATININE / GLUCOSE / LACTATE DEHYDROGENASE / LIPASE / PHOSPHORUS / POTASSIUM / SODIUM / TOTAL BILIRUBIN / TOTAL PROTEIN / URIC ACID: tissue Plasma

## C#C[C@]1(O)CC[C@H]2[C@@H]3CCc4cc(O)ccc4[C@H]3CC[C@@]21C [ETHINYL ESTRADIOL]
72 h, time 3 day
  ABSOLUTE BASOPHIL: 0 CELLS/uL
  ABSOLUTE EOSINOPHIL: 104.17 CELLS/uL
  ABSOLUTE LYMPHOCYTE: 14547 CELLS/uL
  ABSOLUTE MONOCYTE: 292 CELLS/uL
  ABSOLUTE SEGMENTED NEUTROPHIL: 1640.17 CELLS/uL
  BASOPHIL: 0%
  EOSINOPHIL: 0.67%
  ERYTHROCYTE COUNT: 5.35 x10E6/uL
  HEMATOCRIT: 33.67%
  HEMOGLOBIN: 13.38 G/DL
  LEUKOCYTE COUNT: 16.58 x10E3/uL
  LYMPHOCYTE: 87.5%
  MEAN CORPUSCULAR HEMOGLOBIN: 25.05 pg
  MEAN CORPUSCULAR HEMOGLOBIN CONCENTRATION: 39.78 G/DL
  MEAN CORPUSCULAR VOLUME: 62.97 fL
  MONOCYTE: 1.83%
  NEUTROPHIL: 10%
  NUCLEATED RED BLOOD CELLS: 0 /100WBC
  PLATELET COUNT: 1274.5 x10E3/uL
  ALANINE AMINOTRANSFERASE: 76.83 u/L
  ALBUMIN: 3.97 G/DL
  ALKALINE PHOSPHATASE: 347 u/L
  ASPARTATE AMINOTRANSFERASE: 97.17 u/L
  BLOOD UREA NITROGEN: 14.33 mg/dL
  CARBON DIOXIDE: 25.5 mmol/L
  CHLORIDE: 100.33 MEQ/L
  CHOLESTEROL: 68.67 mg/dL
  CREATINE PHOSPHOKINASE: 659.17 u/L
  CREATININE: 0.32 mg/dL
  GLUCOSE: 160.67 mg/dL
  LACTATE DEHYDROGENASE: 271.5 u/L
  LIPASE: 11.67 u/L
  PHOSPHORUS: 10.65 mg/dL
  POTASSIUM: 5.95 MEQ/L
  SODIUM: 139.65 MEQ/L
  TOTAL BILIRUBIN: 0.2 mg/dL
  TOTAL PROTEIN: 5.72 G/DL
  URIC ACID: 1.37 mg/dL
120 h, time 5 day
  ABSOLUTE BASOPHIL: 0 CELLS/uL
  ABSOLUTE EOSINOPHIL: 331.5 CELLS/uL
  ABSOLUTE LYMPHOCYTE: 15021.67 CELLS/uL
  ABSOLUTE MONOCYTE: 376.5 CELLS/uL
  ABSOLUTE SEGMENTED NEUTROPHIL: 3070.33 CELLS/uL
  BASOPHIL: 0%
  EOSINOPHIL: 1.83%
  ERYTHROCYTE COUNT: 5.24 x10E6/uL
  HEMATOCRIT: 33.22%
  HEMOGLOBIN: 13.2 G/DL
  LEUKOCYTE COUNT: 18.8 x10E3/uL
  LYMPHOCYTE: 79.67%
  MEAN CORPUSCULAR HEMOGLOBIN: 25.17 pg
  MEAN CORPUSCULAR HEMOGLOBIN CONCENTRATION: 39.73 G/DL
  MEAN CORPUSCULAR VOLUME: 63.38 fL
  MONOCYTE: 2%
  NEUTROPHIL: 16.5%
  NUCLEATED RED BLOOD CELLS: 0 /100WBC
  PLATELET COUNT: 1142.67 x10E3/uL
  ALANINE AMINOTRANSFERASE: 52.5 u/L
  ALBUMIN: 3.9 G/DL
  ALKALINE PHOSPHATASE: 284.5 u/L
  ASPARTATE AMINOTRANSFERASE: 81.33 u/L
  BLOOD UREA NITROGEN: 16 mg/dL
  CARBON DIOXIDE: 25.33 mmol/L
  CHLORIDE: 99.5 MEQ/L
  CHOLESTEROL: 74.83 mg/dL
  CREATINE PHOSPHOKINASE: 448.33 u/L
  CREATININE: 0.37 mg/dL
  GLUCOSE: 164.17 mg/dL
  LACTATE DEHYDROGENASE: 290.67 u/L
  LIPASE: 6.83 u/L
  PHOSPHORUS: 11.5 mg/dL
  POTASSIUM: 6.28 MEQ/L
  SODIUM: 139.5 MEQ/L
  TOTAL BILIRUBIN: 0.13 mg/dL
  TOTAL PROTEIN: 5.55 G/DL
  URIC ACID: 1.12 mg/dL
